Patent US9420797B2, “Method for preparing biocidal aqueous compositions” (BROMINE COMPOUNDS LTD., priority 2012, dated 2016)

What was measured:
[1] = system: Pseudomonas aeruginosa (ATCC 15442) entrapped in alginate gel beads; assay: Biocidal activity against simulated biofilm (bacteria entrapped in alginate gel beads), surviving CFU; settings: contact time 24 hours, count at time 0 1.40E+07
[2] = system: Inoculum of bacteria (Activated sludge taken from Domestic Waste Water treatment Plant—Haifa); assay: Microbial efficacy (% kill) under different TOC loading, activated sludge bacteria, pour plate count on R2A agar; format: cell-based; settings: contact time 30 min, pH 7
Source text: Inoculum of bacteria (Activated sludge taken from Domestic Waste Water treatment Plant-Haifa). R2A agar for general counting. Tryptone, in amounts of either 0.025, or 0.119 or 0.239 g solid tryptone, was weighed and dissolved in 1 liter of buffer. Neutralization solution (NaHSO4). Chlorourea solution, prepared from aq. urea hydrochloride (consisting of 5.8% HCl and 38.2% urea, Wt %) and a 12.9% aq NaOCl as Cl2, Wt %); Urea, HCl:NaOCl 4:1:1 molar ratio. The biocidal efficacy of the antifouling composition at different organic loads of 0, 10, 30 and 50 ppm TOC, was examined under different biocidal concentrations (2.5, 5 and 10 ppm) at pH 7. 1) 1 ml of inoculum was added to tryptone solutions (placed in 3 erlenmeyer flasks, 100 ml each, with different concentrations of TOC-0, 10, 30 and 50 ppm). 2) 1 ml of each sample was inoculated on […] agar (pour plate method). The result stands for the bacteria count at zero time. 3) For each of the tryptone concentrations (0, 10, 30, 50 ppm TOC) an inoculum of bacteria (1 ml) and the appropriate biocide concentration were added. 4) After 30 and 60 min. of shaking (100 rpm), 1 ml of each sample was transferred to a tube filled with 9 ml of the neutralization solution. An aliquot of 1 ml was taken from this solution and added to another tube containing 9 ml of buffer solution. The solution was mixed under vortex. This operation was repeated 4 more times. 5) 1 ml from the two lowest dilutions was inoculated on a […] agar (by the pour plate method). 6) After the plates were incubated at 25° C. for 5-7 days, the bacteria count was recorded.

## OCl [NaOCl, sodium hypochlorite]
[1]; biocide 0.5 ppm as Cl2
  survival of bacteria (CFU): 3.6E+06 CFU
[1]; biocide 1 ppm as Cl2
  survival of bacteria (CFU): 2.53E+06 CFU
[1]; biocide 2.5 ppm as Cl2
  survival of bacteria (CFU): 1.00E+00 CFU
[1]; biocide 5 ppm as Cl2
  survival of bacteria (CFU): 1.00E+00 CFU
[2]; TOC 0 ppm, biocide 2.5 ppm as Cl2
  % Kill: 98.8%
[2]; TOC 0 ppm, biocide 5 ppm as Cl2
  % Kill: 99.6%
[2]; TOC 0 ppm, biocide 10 ppm as Cl2
  % Kill: 99.9%
[2]; TOC 10 ppm, biocide 2.5 ppm as Cl2
  % Kill: 37.7%
[2]; TOC 10 ppm, biocide 5 ppm as Cl2
  % Kill: 97.8%
[2]; TOC 10 ppm, biocide 10 ppm as Cl2
  % Kill: 99.5%
[2]; TOC 30 ppm, biocide 2.5 ppm as Cl2
  % Kill: 11.6%
[2]; TOC 30 ppm, biocide 5 ppm as Cl2
  % Kill: 78.2%
[2]; TOC 30 ppm, biocide 10 ppm as Cl2
  % Kill: 93.6%
[2]; TOC 50 ppm, biocide 2.5 ppm as Cl2
  % Kill: 24.1%
[2]; TOC 50 ppm, biocide 5 ppm as Cl2
  % Kill: 49.2%
[2]; TOC 50 ppm, biocide 10 ppm as Cl2
  % Kill: 91.7%
